Laboratory results from the Kinase Knowledgebase extract (Sharma et al. 2016).

How the values were obtained:
CDK2 = CDK2 (UniProt P24941); test: Enzyme Assay
CDK2 (human) = CDK2 (human) (UniProt P24941); test: Cell-Based Assay

| IC50 (CDK2) [µM] | IC50 (CDK2 (human); hct 116) [µM] | IC50 (CDK2 (human); sw480) [µM] | IC50 (CDK2 (human); mda-mb-435) [µM] | Structure (SMILES) |
| --- | --- | --- | --- | --- |
| 10 to 30 |  |  |  | O=[N+]([O-])c1ccc2c(c1)C(c1ccccc1)=Nc1c(n[nH]c1-c1ccc3c(c1)OCCO3)N2 |
| 10 to 30 |  |  |  | Clc1ccc2c(c1)C(c1ccccc1Cl)=Nc1c[nH]nc1N2 |
| 1 to 9.99 |  |  |  | O=[N+]([O-])c1ccc2c(c1)C(c1ccccc1)=Nc1c(n[nH]c1-c1ncc[nH]1)N2 |
| 10 to 30 | 10 to 30 |  |  | O=[N+]([O-])c1ccc2c(c1)C(c1ccccc1Cl)=Nc1c(n[nH]c1-c1cccc(C(F)(F)F)c1)N2 |
| 1 to 9.99 | 10 to 30 | 10 to 30 |  | Cc1ccccc1-c1[nH]nc2c1N=C(c1ccccc1Cl)c1cc([N+](=O)[O-])ccc1N2 |
| 1 to 9.99 |  |  |  | CCOc1cccc(-c2[nH]nc3c2N=C(c2ccccc2Cl)c2cc([N+](=O)[O-])ccc2N3)c1 |
| 1 to 9.99 |  |  |  | O=[N+]([O-])c1ccc2c(c1)C(c1ccccc1Cl)=Nc1c(n[nH]c1-c1ccc3ccccc3c1)N2 |
| 10 to 30 |  |  |  | O=[N+]([O-])c1ccc2c(c1)C(c1ccccc1Cl)=Nc1c(n[nH]c1-c1cccc(Oc3ccccc3)c1)N2 |
| 1 to 9.99 | 10 to 30 |  |  | O=[N+]([O-])c1ccc2c(c1)C(c1ccccc1Cl)=Nc1c(n[nH]c1-c1cc3ccccc3o1)N2 |
| 1 to 9.99 |  |  |  | Fc1ccccc1C1=Nc2c[nH]nc2Nc2ccc(I)cc21 |
| 1 to 9.99 |  |  |  | Clc1ccc2c(c1)C(c1ccccc1)=Nc1c[nH]nc1N2 |
| 1 to 9.99 | 10 to 30 | 10 to 30 |  | O=[N+]([O-])c1ccc2c(c1)C(c1ccccc1Cl)=Nc1c(n[nH]c1-c1cc3ccccc3[nH]1)N2 |
| 1 to 9.99 |  |  |  | CC(C)Cc1[nH]nc2c1N=C(c1ccccc1Cl)c1cc([N+](=O)[O-])ccc1N2 |
| 1 to 9.99 |  |  |  | O=[N+]([O-])c1ccc2c(c1)C(c1ccccc1)=Nc1c(n[nH]c1-c1cccnc1)N2 |
| 1 to 9.99 | 10 to 30 | 10 to 30 |  | c1ccc(C2=Nc3c[nH]nc3Nc3ccccc32)cc1 |
| 0.01 to 0.99 |  |  | 10 to 30 | O=[N+]([O-])c1ccc2c(c1)C(c1ccccc1Cl)=Nc1c(n[nH]c1-[n+]1ccc[nH]1)N2 |
| 1 to 9.99 |  |  |  | O=C(O)c1ccc2c(c1)C(c1ccccc1F)=Nc1c[nH]nc1N2 |
| 0.01 to 0.99 |  |  |  | O=[N+]([O-])c1ccc2c(c1)C(c1ccccc1Cl)=Nc1c(n[nH]c1-c1ccsc1)N2 |
| 1 to 9.99 |  |  | 10 to 30 | CCOC(=O)c1[nH]nc2c1N=C(c1ccccc1Cl)c1cc([N+](=O)[O-])ccc1N2 |
| 1 to 9.99 |  | 10 to 30 |  | Cc1[nH]nc2c1N=C(c1ccccc1)c1cc(I)ccc1N2 |
| 10 to 30 |  |  |  | COc1ccccc1-c1[nH]nc2c1N=C(c1ccccc1Cl)c1cc([N+](=O)[O-])ccc1N2 |
| 10 to 30 |  |  |  | O=[N+]([O-])c1ccc2c(c1)C(c1ccccc1)=Nc1c(n[nH]c1-c1ccccc1F)N2 |
| 1 to 9.99 | 10 to 30 | 10 to 30 |  | Fc1ccccc1C1=Nc2c[nH]nc2Nc2ccccc21 |
| 1 to 9.99 |  |  |  | Cc1cccc(-c2[nH]nc3c2N=C(c2ccccc2Cl)c2cc([N+](=O)[O-])ccc2N3)c1 |
| 0.01 to 0.99 | 10 to 30 |  |  | Cc1ccsc1-c1[nH]nc2c1N=C(c1ccccc1Cl)c1cc([N+](=O)[O-])ccc1N2 |
| 1 to 9.99 |  |  |  | O=C(c1ccc2c(c1)C(c1ccccc1F)=Nc1c[nH]nc1N2)N(CCO)CCO |
| 1 to 9.99 |  |  |  | O=C(O)c1ccc2c(c1)C(c1ccccc1)=Nc1c[nH]nc1N2 |

| IC50 (CDK2) [µM] | IC50 (CDK2 (human); hct 116) [µM] | IC50 (CDK2 (human); sw480) [µM] | IC50 (CDK2 (human); mda-mb-435) [µM] | Structure (SMILES) |
| --- | --- | --- | --- | --- |
| 1 to 9.99 |  |  |  | Fc1ccccc1C1=Nc2c[nH]nc2Nc2ccc(Cl)cc21 |
| 1 to 9.99 |  |  |  | O=[N+]([O-])c1ccc2c(c1)C(c1ccccc1Cl)=Nc1c(n[nH]c1-c1cccc(O)c1)N2 |
| 1 to 9.99 |  |  |  | Cc1ccc(-c2[nH]nc3c2N=C(c2ccccc2Cl)c2cc([N+](=O)[O-])ccc2N3)s1 |
| 0.01 to 0.99 | 10 to 30 | 10 to 30 |  | O=[N+]([O-])c1ccc2c(c1)C(c1ccccc1Cl)=Nc1c(n[nH]c1-c1cccs1)N2 |
| 1 to 9.99 |  | 10 to 30 |  | Fc1ccc2c(c1)C(c1ccccc1F)=Nc1c[nH]nc1N2 |
| 10 to 30 |  |  | 10 to 30 | O=[N+]([O-])c1ccc2c(c1)C(c1ccccc1Cl)=Nc1c(n[nH]c1-[o+]1ccnn1)N2 |
| 1 to 9.99 |  |  |  | N#Cc1cccc(-c2[nH]nc3c2N=C(c2ccccc2Cl)c2cc([N+](=O)[O-])ccc2N3)c1 |
| 1 to 9.99 |  |  |  | N#Cc1ccccc1-c1[nH]nc2c1N=C(c1ccccc1Cl)c1cc([N+](=O)[O-])ccc1N2 |
| 1 to 9.99 |  |  |  | Cc1ccc(-c2[nH]nc3c2N=C(c2ccccc2Cl)c2cc([N+](=O)[O-])ccc2N3)cc1 |
| 10 to 30 |  | 10 to 30 |  | O=[N+]([O-])c1ccc2c(c1)C(c1ccccc1Cl)=Nc1c(n[nH]c1-c1ccccc1C(F)(F)F)N2 |
| 1 to 9.99 | 10 to 30 |  |  | CS(=O)(=O)c1ccc2c(c1)C(c1ccccc1)=Nc1c[nH]nc1N2 |
| 1 to 9.99 |  |  |  | CCc1ccc(-c2[nH]nc3c2N=C(c2ccccc2Cl)c2cc([N+](=O)[O-])ccc2N3)o1 |
| 10 to 30 |  |  |  | O=[N+]([O-])c1ccc2c(c1)C(c1ccccc1Cl)=Nc1c(n[nH]c1-c1ccccc1[N+](=O)[O-])N2 |
| 1 to 9.99 | 10 to 30 | 10 to 30 | 10 to 30 | Nc1ccc2c(c1)C(c1ccccc1Cl)=Nc1c[nH]nc1N2 |
| 1 to 9.99 |  |  |  | Cn1cccc1-c1[nH]nc2c1N=C(c1ccccc1Cl)c1cc([N+](=O)[O-])ccc1N2 |
| 1 to 9.99 |  |  |  | CN(C)C(=O)c1[nH]nc2c1N=C(c1ccccc1Cl)c1cc([N+](=O)[O-])ccc1N2 |
| 10 to 30 | 10 to 30 |  |  | O=[N+]([O-])c1ccc2c(c1)C(c1ccccc1Cl)=Nc1c(n[nH]c1-c1ccc(-n3cccc3)cc1)N2 |
| 1 to 9.99 | 10 to 30 | 10 to 30 | 10 to 30 | O=[N+]([O-])c1ccc2c(c1)C(c1ccccc1Cl)=Nc1c(n[nH]c1Cc1ccccc1)N2 |
| 10 to 30 |  |  |  | O=[N+]([O-])c1ccc2c(c1)C(c1ccccc1)=Nc1c(n[nH]c1-c1ccc3c(c1)OCO3)N2 |
| 1 to 9.99 |  |  |  | COC(=O)c1ccc2c(c1)C(c1ccccc1)=Nc1c[nH]nc1N2 |
| 1 to 9.99 |  |  |  | CN(C)c1ccc(-c2[nH]nc3c2N=C(c2ccccc2Cl)c2cc([N+](=O)[O-])ccc2N3)cc1 |
|  | 1.1 to 9.99 | 1.1 to 9.99 |  | O=[N+]([O-])c1ccc2c(c1)C(c1ccccc1Cl)=Nc1c(n[nH]c1-c1ccc[nH]1)N2 |
| 1 to 9.99 | 10 to 30 | 10 to 30 | 10 to 30 | O=[N+]([O-])c1ccc2c(c1)C(c1ccccc1Cl)=Nc1c(n[nH]c1CCc1ccccc1)N2 |
|  |  |  | 1.1 to 9.99 | O=[N+]([O-])c1ccc2c(c1)C(c1ccccc1Cl)=Nc1c(n[nH]c1C(F)(F)F)N2 |
|  |  |  | 1.1 to 9.99 | CC(C)c1[nH]nc2c1N=C(c1ccccc1Cl)c1cc(N)ccc1N2 |
|  | 10 to 30 | 1.1 to 9.99 | 10 to 30 | O=[N+]([O-])c1ccc2c(c1)C(c1ccccc1F)=Nc1c[nH]nc1N2 |

| Structure (SMILES) | IC50 (CDK2) [µM] | IC50 (CDK2 (human); hct 116) [µM] | IC50 (CDK2 (human); sw480) [µM] | IC50 (CDK2 (human); mda-mb-435) [µM] |
| --- | --- | --- | --- | --- |
| N#Cc1ccc2c(c1)C(c1ccccc1F)=Nc1c[nH]nc1N2 |  | 1.1 to 9.99 | 1.1 to 9.99 | 1.1 to 9.99 |
